This is an account of results in article PMC8020795 (Proceedings of the National Academy of Sciences of the …, 2021).

Where “and” joins values, the source holds several entries; their conditions need not be identical. Identical values can stand only once.

The target in one data set is CXCR4 (Homo sapiens, UniProt P61073). In words: CXCL12-induced chemotaxis inhibition assay in CCRF-CEM cells. The class given is cell-based. Details: host or cells: CCRF-CEM. The following applies: mean ± SD. The procedure: Figure S1. Binding affinity and chemotaxis inhibition assay of BPRCX807. (a) Binding affinity (IC50) of BPRCX807 was determined by 50% inhibition of radioligand [125I]CXCL12 binding to hCXCR4-transfected HEK293T membrane; (b) CXCL12-induced chemotaxis inhibition assay was performed to measure the inhibitory activity of BPRCX807 using CCRF-CEM cell line. Values represent the mean ± SD of at least three independent […]
Figure S2. CXCR4+CD34+ stem cell mobilization. C57BL/6 male mice were […]
h after dosing, the peripheral blood was harvested for analyzing the number of CXCR4+CD34+ stem cells. The data are the mean values ± SEM (n = 3/group). Statistical

Data set [1] deals with HCA-1 cells. Briefly: Western blot of phospho-ERK and phospho-AKT after CXCL12 stimulation. It counts as cell-based, murine. The following applies: 20 µM, CXCL12 stimulation. How it is done:
Western blotting was conducted by following standard procedures. HCA-1 or JHH-7 cells (10^5 cells per well) were seeded in 12-well plates (Costar, IL), incubated for 12 h and […]
containing (100 ng/mL) serum-free medium. After 24 h, the cells were lysed in RIPA buffer on ice for 30 min, and samples were collected and loaded with 4× Laemmli Sample buffer (Bio-Rad, Hercules, CA). The samples were separated on a 10% SDS-PAGE gels and transferred to PVDF membranes. After blocking with skim milk for 1 h, the membranes were incubated at 4°C overnight with primary antibodies against p -AKT, AKT, p-ERK, ERK (Cell Signaling, Danvers, MA) or β-actin (Sigma-Aldrich, St. Louis, MO) before incubation with HRP-conjugated secondary antibodies (Antibodies Inc., Davis, CA) for 1 h. […]
Total RNA was extracted from HCA-1 cells using the RNeasy Mini Kit (Qiagen, CA, USA). cDNAs were synthesized using the High-Capicity cDNA Reverse Transcription Kit […]
Biosystems, CA, USA) on a QPCR System. The comparative threshold cycle method was used to calculate fold change in gene expression, which was normalized to β-actin as a […]
(A western blot detects proteins with antibodies after separation by electrophoresis.)

Another data set is described as follows: in vivo. The following applies: male, C57BL/6, mouse, in vivo, sc, 6 mg/kg. How it is done:
Pharmacokinetics and toxicological studies
Male C57BL/6 mice, each weighing 23.4–25.4 g, were quarantined for 1 week before drug treatment. Compounds dissolved in 100% saline were individually given to mice (n = 3) subcutaneously (6 mg/kg; nonfasted mice). Blood samples were collected via cardiac puncture at defined time points (0 (immediately before dosing), 0.03, 0.08, 0.25, 0.5, 1, 2, and 4 h after dosing) and then stored at −80 °C. The volume of the dosing solution given was 100 µL for each mouse. The plasma samples were analyzed by liquid chromatography– tandem mass spectrometry (LC–MS/MS), and the data were calculated by a standard noncompartmental method using the Kinetica software program (InnaPhase). […]

For data set [2], the system named is HCA-1 cells. In words: EMT marker expression under hypoxia (qRT-PCR). The following applies: hypoxic conditions (1% oxygen). It counts as cell-based, murine. The procedure:
Signaling, Danvers, MA) or β-actin (Sigma-Aldrich, St. Louis, MO) before incubation with HRP-conjugated secondary antibodies (Antibodies Inc., Davis, CA) for 1 h. Autoradiography was conducted after ECL reagent (Thermo Scientific, Rockford, IL) was added to the […]
Reverse transcription quantitative real time PCR
Total RNA was extracted from HCA-1 cells using the RNeasy Mini Kit (Qiagen, CA, USA). cDNAs were synthesized using the High-Capicity cDNA Reverse Transcription Kit (Applied Biosystems, CA, USA). Primers specific for Slug, Fn1, Cdh2, Vim, Foxc2, Zeb1, Zeb2, Twist1, Cdh1, Mta3, Cldn3, Cldn5, β-actin and GAPDH were used, and relative gene expression was determined using Real-Time SYBR Green PCR Master Mix (Applied Biosystems, CA, USA) on a QPCR System. The comparative threshold cycle method was used to calculate fold change in gene expression, which was normalized to β-actin as a […]
On the technique in general: Quantitative PCR measures a nucleic acid by following its amplification.

Data set [3] deals with HCA-1 cells. In words: CXCL12-induced HCA-1 chemotaxis (invasion assay). It counts as cell-based, murine. The following applies: concentration up to 1 µM. How it is done: [3-(2-Aminomethyl-oxazol-4-yl)-propyl]-[3-(tert-butoxycarbonyl-cyclohexyl-amino)- propyl]-carbamic acid tert-butyl ester (Linker 1). A mixture of L1-6 (10.35 g, 16.5 mmol) and 10% Pd/C (4.66 g) in iso-propanol (310 mL) was stirred under H2(g) at 50 °C for 15 h.
The resulting mixture was filtered, and the filtrate was concentrated to afford Linker 1 (7.23 g, […]
Wound healing and invasion assays
Cell migration ability was measured by wound healing assay. HCA-1 cells (5 × 10^5 cells per well) were seeded onto 12-well plates and incubated overnight. When the cell confluence exceeded 90%, scratch wounds were made by scraping a straight line in the middle of the cell layer using the tip of a 1000 µL pipette. After washing the cells with PBS, the cells were incubated in serum-free medium under different treatment conditions (control, 100 ng/mL CXCL12, and 10 µM BPRCX807 with 100 ng/mL CXCL12). Then, 3-4 fields (40×) of each group were randomly chosen and observed by a microscope (IX83, Olympus, Japan) at time points of 0 h, 24h, 48 h and 72 h. For the invasion assay, HCA-1 cells were suspended in RPMI 1640 containing 0.5% FBS and then preincubated with the indicated concentrations of compounds for 10 min at 37 °C. […] After 17.5 h of incubation at 37 °C, the cells in both chambers of the inserts were measured with a CellTiter-Glo Luminescent Cell Viability Assay (Promega, Wisconsin). […]

CXCR4, sequence (P61073 whole entry): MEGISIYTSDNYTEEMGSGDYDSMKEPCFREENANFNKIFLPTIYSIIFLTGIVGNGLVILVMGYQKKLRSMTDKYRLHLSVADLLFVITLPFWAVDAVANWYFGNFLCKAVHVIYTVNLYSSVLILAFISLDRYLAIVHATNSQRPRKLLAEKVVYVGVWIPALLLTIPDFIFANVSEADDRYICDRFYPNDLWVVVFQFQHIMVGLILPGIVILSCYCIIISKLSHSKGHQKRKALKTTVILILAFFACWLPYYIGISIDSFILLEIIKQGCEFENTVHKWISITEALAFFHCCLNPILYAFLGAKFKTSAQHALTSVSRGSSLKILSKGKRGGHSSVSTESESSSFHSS

The EC50 is the concentration that produces a half-maximal response. The low end stands for higher potency in that assay, the high end for lower potency in that assay. As usually defined, the AUC(0-t) is the area under the concentration-time curve up to a stated or last time point. For orientation: Cmax means the maximum level reached in the sampled fluid or tissue. What is called half-life is how long it takes for the measured level to halve. A higher half-life goes with slow loss. With `Cc1cc(NC2CCN(C(=O)CCNCC(=O)O)CC2)nc(NCc2nc(CCCNCCCNC3CCCCC3)co2)n1` [BPRCX807], at CXCR4, the EC50 is 48 nM and 48.1 nM. Moreover, the “CXCR4/CXCL12-triggered ERK and Akt activation” value with HCA-1 cells [1] is “suppress CXCR4/CXCL12-triggered ERK and Akt activation more significantly than its counterparts”. In addition, in the data set “in vivo”, the AUC(0-t) worked out at 16500 ng·h/mL, the concentration peaked (Cmax) at 18800 ng/mL and the half-life was 60 min. The “Expression of epithelial markers (E-cadherin, MTA-3, CLDN3, CLDN5)” value with HCA-1 cells [2] was “alleviated a hypoxia-induced decrease in the epithelial markers”. The “Expression of mesenchymal markers (Slug, Fibronectin, N-cadherin, Vimentin, FOXC2, Zeb1, Zeb2)” value in the data set with HCA-1 cells [2] (dose-dependent) is recorded as “restrained the increases in the expression of mesenchymal markers”. Moreover, the CXCL12-induced cell migration entry in the data set with HCA-1 cells [3] is recorded as “significant decrease”.
